Measurements published in patent US20150377888A1, “Methods for Predicting and Preventing Metastasis in Triple Negative Breast Cancers” (INSERM (INSTITUT NATIONAL DE LA SANTÉ ET DE LA RECHERCHE …, priority 2013, published 2015).

What was measured:
[1] = tested on: TNBC breast cancer cell lines (Hs578T, MDA-MB-231 and MDA-MB-468); assay: In vitro motility assay (Boyden chambers); assay type: cell-based, human; details: cells pre-treated with the agent (inhibitors at non-cytotoxic amounts), exposed to cl-CD95L
Experimental: Boyden chambers (Millipore, Molsheim, France) containing 8 μm pore membranes were cultured in 24-well plates. After hydration of the membranes, 10^5 cells were added to the top chamber in low serum (1%)-containing medium. […] Cells were cultured for 24 h at 37° C. in a 5% CO2 humidified incubator. To quantify invasion, cells were fixed with methanol and stained with Giemsa. Stained cells were then removed from the top side of the membrane using a cotton-tipped swab and five representative pictures for each insert were taken of the invading cells from the reverse side. For each experiment, cells were lysed and absorbance at 560 nm was measured.

PI3K = assay: Immunoblot of Akt phosphorylation at Ser473 (hallmark of PI3K activation) in cells exposed to cl-CD95L; assay type: cell-based, human; details: for effect on CD95-mediated PI3K activation (phosphorylation of Akt at serine 473): breast cancer / TNBC cells exposed to cl-CD95L; for effect on CD95-mediated activation of Aid: pre-treatment of mammary cancer cells, non-cytotoxic amounts
Experimental: (§1) Cells were lysed for 30 min at 4° C. in lysis buffer [25 mM HEPES (pH 7.4), 1% v/v Triton X-100, 150 mM NaCl, and 2 mM EGTA supplemented with a mix of protease inhibitors (Sigma-Aldrich)]. Protein concentration was determined by the bicinchoninic acid method (PIERCE, Rockford, Ill., USA) according to the manufacturer's protocol. Proteins were separated by SDS-PAGE and transferred to a nitrocellulose membrane (GE Healthcare, Buckinghamshire, England). […] The proteins were visualized with the enhanced chemiluminescence substrate kit (ECL, GE Healthcare).

NADPHox = assay: Flow cytometry analysis of intracellular ROS (H2FDA); assay type: cell-based, human; details: pre-treatment with NADPHox inhibitor
Experimental: Cells were pre-incubated for 30 min at 37° C. with 3 μM of H2FDA resuspended in PBS. The cells were then pre-incubated for an additional 30 min with or without ROS inhibitors before stimulation with 100 ng/ml cl-CD95L for the indicated times. Cells were then washed and analyzed by FACScalibur (BD Bioscience).

c-yes = c-yes activation status (auto-phosphorylation at Tyrosine 426); assay type: cell-based, human; details: pre-treatment of mammary cancer cells, non-cytotoxic amounts
Experimental: as §1

[2] = tested on: CD95-mediated Ca2+ response; assay: Ca2+ monitoring: CD95-mediated Ca2+ response; assay type: cell-based, human; details: TNBC cells exposed to cl-CD95L
Experimental: For experiments on parent cell lines, breast cancer cells were loaded with Fura2-PE3-AM (1 μM) at room temperature for 30 min in Hank's Balanced Salt Solution (HBSS). After washing with HBSS, the cells were incubated for 15 min in the absence of Fura2-AM to complete de-esterification of the dye. Cells were placed in the temperature controlled chamber (37° C.) of an inverted epifluorescence microscope (Olympus IX70) equipped with an ×40 UApo/340-1.15 W water-immersion objective (Olympus), and fluorescence micrograph images were captured at 510 nm and 12-bit resolution by a fast-scan camera (CoolSNAP fx Monochrome, Photometrics). To minimize UV light exposure, a 4×4 binning function was used. […]
For experiments on GFP-expressing cell lines, Fluo8-AM was used, instead of Fura2-PE3-AM for experiments with GFP-expressing cells (infected with shRNA-expressing lentivirus), because GFP fluorescence disturbs Ca^2+ measurement with Fura2-PE3. Efficiently transduced cells (GFP expressing cells) were located by their emission of fluorescence at 530±30 nm for a light excitation at 485±22 nm. Ca^2+ changes were evaluated by exciting Fluo8-AM-loaded cells at […]. The values of the emitted fluorescence (605±50 nm) for each cell (F) were normalized to the starting fluorescence (F0) and reported as F/F0 (relative Ca^2+[CYT]). […]

EGFR = assay: Ca2+ monitoring: EGF-induced Ca2+ response; assay type: cell-based, human; details: TNBC cells (MDA-MB-231) in presence of EGF
Experimental: For experiments on parent cell lines, breast cancer cells were loaded with Fura2-PE3-AM (1 μM) at room temperature for 30 min in Hank's Balanced Salt Solution (HBSS). […] To minimize UV light exposure, a 4×4 binning function was used. Fura2-AM was alternately excited at 340 and 380 nm, and the ratios of the resulting images (excitations at 340 and 380 nm and emission filter at 520 nm) were produced at constant intervals (10 seconds). […] Fratio reflects the intracellular Ca^2+ concentration changes. Each experiment was repeated 3 times, and for each experimental condition, the average of more than 20 single-cell traces was used.

CD95 (human) = CD95 (human) (UniProt P25445); assay: cell-based or functional assay
Nox-2 = target: T1, Nox-2 (human, UniProt P04839 2-570); assay: co-immunoprecipitation of CD95 (MISC) from MDA-MB-231 cells stimulated with cl-CD95L
T1 sequence (looked up): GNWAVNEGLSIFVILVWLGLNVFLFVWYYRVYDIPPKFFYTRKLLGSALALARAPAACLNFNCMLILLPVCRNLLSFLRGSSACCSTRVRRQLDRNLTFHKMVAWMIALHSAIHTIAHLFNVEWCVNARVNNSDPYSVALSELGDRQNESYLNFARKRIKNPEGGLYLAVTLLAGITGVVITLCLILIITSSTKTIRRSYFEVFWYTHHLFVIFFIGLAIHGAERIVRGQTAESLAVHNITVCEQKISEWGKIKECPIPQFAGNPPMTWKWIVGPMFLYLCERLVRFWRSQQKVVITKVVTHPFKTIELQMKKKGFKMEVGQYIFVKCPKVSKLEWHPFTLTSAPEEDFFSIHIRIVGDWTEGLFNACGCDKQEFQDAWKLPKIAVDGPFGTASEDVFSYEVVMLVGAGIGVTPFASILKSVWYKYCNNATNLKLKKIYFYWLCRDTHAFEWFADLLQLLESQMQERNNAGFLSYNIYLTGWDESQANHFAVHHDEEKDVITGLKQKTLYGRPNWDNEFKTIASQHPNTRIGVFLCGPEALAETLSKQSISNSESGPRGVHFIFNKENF
Experimental: (§2) The cells were then lysed, 1 μg of Apo1-3 was added to the cell lysate and CD95 was immunoprecipitated by the addition of protein A-sepharose beads (Sigma-Aldrich). […] After extensive washing, the immune complex was resolved by SDS-PAGE.

Nox-4 = target: T2, Nox-4 (human, UniProt Q9NPH5 1-578, limits assumed); assay: as above
T2 sequence (looked up): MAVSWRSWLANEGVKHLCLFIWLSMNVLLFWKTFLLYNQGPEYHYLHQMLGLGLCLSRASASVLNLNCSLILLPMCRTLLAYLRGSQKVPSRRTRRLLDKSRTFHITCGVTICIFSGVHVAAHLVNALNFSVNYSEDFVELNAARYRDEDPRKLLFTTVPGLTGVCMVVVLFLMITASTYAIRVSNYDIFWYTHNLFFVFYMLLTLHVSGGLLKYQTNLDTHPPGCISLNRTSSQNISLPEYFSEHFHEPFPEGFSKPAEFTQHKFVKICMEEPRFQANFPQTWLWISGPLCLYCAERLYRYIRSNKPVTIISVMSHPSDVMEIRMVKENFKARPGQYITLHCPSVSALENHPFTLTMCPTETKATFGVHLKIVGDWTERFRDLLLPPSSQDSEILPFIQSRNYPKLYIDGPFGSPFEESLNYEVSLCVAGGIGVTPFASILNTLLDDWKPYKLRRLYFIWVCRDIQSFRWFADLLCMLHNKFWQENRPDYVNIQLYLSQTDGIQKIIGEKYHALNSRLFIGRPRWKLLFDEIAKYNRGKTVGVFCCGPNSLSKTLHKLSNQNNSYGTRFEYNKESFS
Experimental: as §2

Nox-1 = target: T3, Nox-1 (human, UniProt Q9Y5S8 1-564, limits assumed); assay: as above
T3 sequence (looked up): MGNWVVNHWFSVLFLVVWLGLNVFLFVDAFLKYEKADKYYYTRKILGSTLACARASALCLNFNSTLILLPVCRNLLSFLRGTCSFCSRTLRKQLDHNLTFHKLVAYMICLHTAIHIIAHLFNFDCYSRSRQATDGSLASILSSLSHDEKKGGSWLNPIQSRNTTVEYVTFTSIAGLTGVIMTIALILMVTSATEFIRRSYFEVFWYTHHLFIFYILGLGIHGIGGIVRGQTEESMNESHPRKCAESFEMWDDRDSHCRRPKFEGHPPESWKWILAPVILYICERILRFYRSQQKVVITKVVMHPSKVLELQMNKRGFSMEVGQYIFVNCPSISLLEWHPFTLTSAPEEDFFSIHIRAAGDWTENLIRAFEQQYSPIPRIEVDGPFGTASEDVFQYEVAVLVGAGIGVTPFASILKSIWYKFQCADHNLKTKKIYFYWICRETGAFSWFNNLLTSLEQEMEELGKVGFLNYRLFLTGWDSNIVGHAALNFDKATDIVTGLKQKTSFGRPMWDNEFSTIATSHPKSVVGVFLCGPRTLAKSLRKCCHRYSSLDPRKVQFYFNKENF
Experimental: as §2

CC(=O)OCOC(=O)CN(CC(=O)OCOC(C)=O)c1ccccc1OCCOc1ccccc1N(CC(=O)OCOC(C)=O)CC(=O)OCOC(C)=O [BAPTA-AM, 1,2-bis-(o-Aminophenoxy)ethane-N,N,N′,N′-tetraacetic Acid Tetra-(acetoxymethyl) Ester]
effect on migration of TNBC cells exposed to cl-CD95L [1]: inhibited
effect on CD95-mediated PI3K activation (phosphorylation of Akt at serine 473) (PI3K): inhibited

Cc1nnsc1C(=O)Nc1ccc(-n2nc(C(F)(F)F)cc2C(F)(F)F)cc1 [BTP2]
effect on migration of TNBC cells exposed to cl-CD95L [1]: inhibited
effect on CD95-mediated PI3K activation (phosphorylation of Akt at serine 473) (PI3K): inhibited

c1ccc2c(c1)[I+]c1ccccc1-2 [DPI, diphenyleneiodonium chloride]
effect on migration of TNBC cells exposed to cl-CD95L [1]: inhibited cell migration
effect on CD95-mediated activation of Aid (PI3K): impaired
effect on cl-CD95L-induced increase in intracellular ROS (NADPHox): blocked
effect on CD95-mediated activation of c-yes (c-yes): impaired

COc1cc(C(C)=O)ccc1O [apocynin]
effect on migration of TNBC cells exposed to cl-CD95L [1]: inhibited cell migration
effect on CD95-mediated activation of Aid (PI3K): impaired
effect on cl-CD95L-induced increase in intracellular ROS (NADPHox): blocked
effect on CD95-mediated activation of c-yes (c-yes): impaired

C#Cc1cccc(Nc2ncnc3cc(OCCOC)c(OCCOC)cc23)c1 [erlotinib]
effect on migration of TNBC cells exposed to cl-CD95L [1]: abolished
effect on CD95-mediated PI3K activation (phosphorylation of Akt at serine 473) (PI3K): prevented
effect on CD95-mediated Ca2+ response [2]: neither treatment with erlotinib nor EGFR silencing altered
effect on CD95-mediated Ca2+ response ([2]; listed as Erlotinib): do not alter
effect on EGF-induced Ca2+ response (EGFR): blocked
effect on EGF-induced Ca2+ response (EGFR; listed as Erlotinib): abolished

metalloprotease-cleaved CD95L (from UniProt P48023 130-281) (ligand)
cell migration (Boyden chamber) of TNBC cells (CD95 (human)): 100 pg/mL

B1: CD95 (receptor)
chain: QVTDINSKGLELRKTVTTVETQNLEGLHHDGQFCHKPCPPGERKARDCTVNGDEPDCVPCQEGKEYTDKAHFSSKCRRCRLCDEGHGLEVEINCTRTQNTKCRCKPNFFCNSTVCEHCDPCTKCEHGIIKECTLTSNTKCKEEGSRSNLGWLCLLLLPIPLIVWVKRKEVQKTCRKHRKENQGSHESPTLNPETVAINLSDVDLSKYITTIAGVMTLSQVKGFVRKNGVNEAKIDEIKNDNVQDTAEQKVQLLRNWHQLHGKKEAYDTLIKDLKKANLCTLAEKIQTIILKDITSDSENSNFRNEIQSLV
notes: also called Fas; FasR
binding result (Nox-2): no binding
binding result (Nox-4): no binding
binding result (Nox-1): no binding
